Test results from ChEMBL document CHEMBL1138190, “Synthesis and antibacterial activity of novel C12 vinyl ketolides” (J Med Chem, 2006).
In brackets after ≈: the same amount, converted by molar mass.

What was measured:
Assay type in all cases: functional
[1] = test system: Haemophilus influenzae; assay: Antibacterial activity against Haemophilus influenzae 2762
[2] = test system: Staphylococcus aureus; assay: Antibacterial activity against Staphylococcus aureus 29213
[3] = test system: Staphylococcus aureus; assay: Antibacterial activity against Staphylococcus aureus 33591
[4] = test system: Staphylococcus epidermidis; assay: Antibacterial activity against Staphylococcus epidermidis 14990
[5] = test system: Staphylococcus epidermidis; assay: Antibacterial activity against Staphylococcus epidermidis f50654
[6] = test system: Enterococcus faecalis; assay: Antibacterial activity against Enterococcus faecalis 29212
[7] = test system: Enterococcus faecalis; assay: Antibacterial activity against Enterococcus faecalis bc11148-2
[8] = test system: Streptococcus pyogenes; assay: Antibacterial activity against Streptococcus pyogenes 8668
[9] = test system: Streptococcus pneumoniae; assay: Antibacterial activity against Streptococcus pneumoniae 49619
[10] = test system: Streptococcus pneumoniae; assay: Antibacterial activity against Streptococcus pneumoniae 297-749
[11] = test system: Streptococcus pneumoniae; assay: Antibacterial activity against Streptococcus pneumoniae 280-962
[12] = test system: Streptococcus pneumoniae; assay: Antibacterial activity against Streptococcus pneumoniae Erm 6849
[13] = test system: Streptococcus pneumoniae; assay: Antibacterial activity against Streptococcus pneumoniae Mef 5654
[14] = test system: Streptococcus pneumoniae; assay: Antibacterial activity against Streptococcus pneumoniae Mef S 3427
[15] = test system: Haemophilus influenzae; assay: Antibacterial activity against Haemophilus influenzae 49247

Row | MIC [1] [µg/mL] | MIC [2] [µg/mL] | MIC [3] [µg/mL] | MIC [4] [µg/mL] | MIC [5] [µg/mL] | MIC [6] [µg/mL] | MIC [7] [µg/mL] | MIC [8] [µg/mL] | MIC [9] [µg/mL] | MIC [10] [µg/mL] | MIC [11] [µg/mL] | MIC [12] [µg/mL] | MIC [13] [µg/mL] | MIC [14] [µg/mL] | MIC [15] [µg/mL] | Compound
1 | 1.56 (≈ 1.79 µM) | 0.2 (≈ 0.229 µM) | > 50 | 0.1 (≈ 0.115 µM) | 0.2 (≈ 0.229 µM) | 0.1 (≈ 0.115 µM) | 3.13 (≈ 3.59 µM) | ≤ 0.05 | ≤ 0.05 | ≤ 0.05 | ≤ 0.05 | 0.4 (≈ 0.458 µM) | 0.78 (≈ 0.894 µM) | ≤ 0.05 | 6.25 (≈ 7.16 µM) | C=C[C@]12OC(=O)N(CCCCn3cc(-c4ccc(Cl)nc4)nc3C)[C@@H]1[C@@H](C)C(=O)[C@H](C)C[C@@](C)(OC)[C@H](O[C@@H]1O[C@H](C)C[C@H](N(C)C)[C@H]1O)[C@@H](C)C(=O)[C@@H](C)C(=O)O[C@@H]2CC
2 | 0.78 (≈ 0.912 µM) | 0.1 (≈ 0.117 µM) | > 50 | 0.1 (≈ 0.117 µM) | 0.1 (≈ 0.117 µM) | ≤ 0.05 | 0.4 (≈ 0.468 µM) | ≤ 0.05 | ≤ 0.05 | ≤ 0.05 | ≤ 0.05 | 0.4 (≈ 0.468 µM) | 0.78 (≈ 0.912 µM) | 0.2 (≈ 0.234 µM) | 6.25 (≈ 7.31 µM) | C=C[C@]12OC(=O)N(CCCCn3cnc(-c4cnc(OC)nc4)c3)[C@@H]1[C@@H](C)C(=O)[C@H](C)C[C@@](C)(OC)[C@H](O[C@@H]1O[C@H](C)C[C@H](N(C)C)[C@H]1O)[C@@H](C)C(=O)[C@@H](C)C(=O)O[C@@H]2CC

The remaining lines, values behind:

Row | Compound | MIC [1] [µg/mL] | MIC [2] [µg/mL] | MIC [3] [µg/mL] | MIC [4] [µg/mL] | MIC [5] [µg/mL] | MIC [6] [µg/mL] | MIC [7] [µg/mL] | MIC [8] [µg/mL] | MIC [9] [µg/mL] | MIC [10] [µg/mL] | MIC [11] [µg/mL] | MIC [12] [µg/mL] | MIC [13] [µg/mL] | MIC [14] [µg/mL] | MIC [15] [µg/mL]
3 | C=C[C@]12OC(=O)N(CCCCn3cnc(-c4cccnc4)c3)[C@@H]1[C@@H](C)C(=O)[C@H](C)C[C@@](C)(OC)[C@H](O[C@@H]1O[C@H](C)C[C@H](N(C)C)[C@H]1O)[C@@H](C)C(=O)[C@@H](C)C(=O)O[C@@H]2CC | 1.56 (≈ 1.89 µM) | 0.1 (≈ 0.121 µM) | > 50 | 0.2 (≈ 0.243 µM) | 0.2 (≈ 0.243 µM) | 0.1 (≈ 0.121 µM) | 0.4 (≈ 0.485 µM) | ≤ 0.05 | ≤ 0.05 | ≤ 0.05 | ≤ 0.05 | 0.2 (≈ 0.243 µM) | 0.4 (≈ 0.485 µM) | 0.1 (≈ 0.121 µM) | 3.13 (≈ 3.8 µM)
4 | C=C[C@]12OC(=O)N(CCCCn3cnc(-c4cnccn4)c3)[C@@H]1[C@@H](C)C(=O)[C@H](C)C[C@@](C)(OC)[C@H](O[C@@H]1O[C@H](C)C[C@H](N(C)C)[C@H]1O)[C@@H](C)C(=O)[C@@H](C)C(=O)O[C@@H]2CC | 1.56 (≈ 1.89 µM) | 0.2 (≈ 0.242 µM) | > 50 | 0.1 (≈ 0.121 µM) | 0.2 (≈ 0.242 µM) | 0.1 (≈ 0.121 µM) | 0.4 (≈ 0.485 µM) | ≤ 0.05 | ≤ 0.05 | ≤ 0.05 | ≤ 0.05 | 0.2 (≈ 0.242 µM) | 0.78 (≈ 0.945 µM) | 0.1 (≈ 0.121 µM) | 3.13 (≈ 3.79 µM)
5 | C=C[C@]12OC(=O)N(CCCCn3ccc4ncccc43)[C@@H]1[C@@H](C)C(=O)[C@H](C)C[C@@](C)(OC)[C@H](O[C@@H]1O[C@H](C)C[C@H](N(C)C)[C@H]1O)[C@@H](C)C(=O)[C@@H](C)C(=O)O[C@@H]2CC | 1.56 (≈ 1.96 µM) | 0.1 (≈ 0.125 µM) | > 50 | 0.1 (≈ 0.125 µM) | 0.1 (≈ 0.125 µM) | 0.1 (≈ 0.125 µM) | 3.13 (≈ 3.93 µM) | ≤ 0.05 | ≤ 0.05 | ≤ 0.05 | ≤ 0.05 | 6.25 (≈ 7.84 µM) | 0.4 (≈ 0.502 µM) | 0.1 (≈ 0.125 µM) | 6.25 (≈ 7.84 µM)
6 | C=C[C@]12OC(=O)N(CCN(C)Cc3ccnc(-c4cccnc4)c3)[C@@H]1[C@@H](C)C(=O)[C@H](C)C[C@@](C)(OC)[C@H](O[C@@H]1O[C@H](C)C[C@H](N(C)C)[C@H]1O)[C@@H](C)C(=O)[C@@H](C)C(=O)O[C@@H]2CC | 3.13 (≈ 3.68 µM) | 0.2 (≈ 0.235 µM) | > 50 | 0.2 (≈ 0.235 µM) | 0.2 (≈ 0.235 µM) | 0.1 (≈ 0.118 µM) | 0.2 (≈ 0.235 µM) | ≤ 0.05 | ≤ 0.05 | ≤ 0.05 | ≤ 0.05 | ≤ 0.05 | 0.4 (≈ 0.471 µM) | 0.1 (≈ 0.118 µM) | 6.25 (≈ 7.35 µM)
7 | C=C[C@]12OC(=O)N(CCCCn3cnc4c(C)ncnc43)[C@@H]1[C@@H](C)C(=O)[C@H](C)C[C@@](C)(OC)[C@H](O[C@@H]1O[C@H](C)C[C@H](N(C)C)[C@H]1O)[C@@H](C)C(=O)[C@@H](C)C(=O)O[C@@H]2CC | 0.78 (≈ 0.959 µM) | 0.1 (≈ 0.123 µM) | > 50 | 0.1 (≈ 0.123 µM) | 0.1 (≈ 0.123 µM) | ≤ 0.05 | 0.4 (≈ 0.492 µM) | ≤ 0.05 | ≤ 0.05 | ≤ 0.05 | ≤ 0.05 | > 50 | 0.78 (≈ 0.959 µM) | 0.2 (≈ 0.246 µM) | 3.13 (≈ 3.85 µM)
8 | CC[C@H]1OC(=O)[C@H](C)[C@@H](O[C@H]2C[C@@](C)(OC)[C@@H](O)[C@H](C)O2)[C@H](C)[C@@H](O[C@@H]2O[C@H](C)C[C@H](N(C)C)[C@H]2O)[C@](C)(OC)C[C@@H](C)C(=O)[C@H](C)[C@@H](O)[C@]1(C)O [CLARITHROMYCIN] | 0.78 (≈ 1.04 µM) | 0.4 (≈ 0.535 µM) | > 50 | 0.2 (≈ 0.267 µM) | 0.2 (≈ 0.267 µM) | 0.78 (≈ 1.04 µM) | > 50 | ≤ 0.05 | ≤ 0.05 | ≤ 0.05 | ≤ 0.05 | > 50 | 6.25 (≈ 8.36 µM) | 3.13 (≈ 4.18 µM) | 6.25 (≈ 8.36 µM)
